Data reported in US8889727B2, “Topical antifungal agent” (Meiji Seika Pharma Co., Ltd., priority 2011, dated 2014).
Values after ≈ are worked out from the molar mass of the structure shown. Counter-ions that a name gives are not always drawn.

How the values were obtained:
[1] = system: T. mentagrophytes ATCC18748; test: Measurement of antifungal activity (MIC, WST8 growth inhibition); assay type: cell-based; conditions: Trichophyton mentagrophytes, 72 h; 80% growth inhibition concentration; T. mentagrophytes ATCC18748, RPMI1640/MOPS, 28° C., 3 days
Protocol: (§1) The compounds for evaluation were dissolved in dimethyl sulfoxide (DMSO) and used. As the test medium, RPMI1640 medium containing 0.165 M 3-morpholino propane sulfonic acid (MOPS) was used. As the test strain, T. mentagrophytes ATCC18748 or T. rubrum ATCC10218 was used. 100 μL of the test strain each at a concentration of 1×10^4 conidia/mL was dispensed, mixed with compounds for evaluation on 96 well half area plate so that the concentration of DMSO becomes 1%, and cultured at 28° C. for 3 days (for T. mentagrophytes) or for 4 days (for T. rubrum). Then, 5 μL of Cell Counting Kit8 (WST8) was added and the absorbances at 450 nm and 595 nm was measured as background. Subsequently, they were incubated at 28° C. for 5 hours (for T. mentagrophytes) or overnight (for T. rubrum) to color, and again the absorbances at 450 nm and 595 nm was measured, and then calculated the growth inhibition percentages using the differences from the background, and 80% growth inhibition concentration was regarded as MIC (μg/ml). Measurement of antifungal activity was conducted by the following method. Compounds for evaluation were dissolved in dimethyl sulfoxide (DMSO) and used. As the test medium, RPMI1640 medium containing 0.165 M 3-morpholinopropane sulfonic acid (MOPS) was used. As the test strain, T. mentagrophytes ATCC18748 or T. rubrum ATCC10218 was used. 100 μL of the test strain was dispensed at a concentration of 1×10^4 conidia/mL, mixed with compounds for evaluation on 96 well half area plate so that the concentration of DMSO becomes 1%, and cultured at a culture temperature of 28° C. for 3 days (for T. mentagrophytes) or for 4 days (for T. rubrum). Then, 5 μL of Cell Counting Kit8 (WST8) was added and the absorbances at 450 nm and 595 nm was measured as background. Subsequently, they were incubated at 28° C. for 5 hours (for T. mentagrophytes) or overnight (for T. rubrum), and again measured the absorbances at 450 nm and 595 nm was measured, and then calculated the growth inhibition percentages using the differences from the background, and 80% growth inhibition concentration was regarded as MIC (μg/ml).

[2] = system: T. rubrum ATCC10218; test: as above; assay type: cell-based; conditions: Trichophyton rubrum, 96 h; 80% growth inhibition concentration; T. rubrum ATCC10218, RPMI1640/MOPS, 28° C., 4 days
Protocol: as §1

[3] = Nail permeability test (bovine hoof slice on agarose); assay type: in vitro ADME; conditions: 2 μL of 10 mg/mL solution on bovine hoof slice (about 100 μm), 28° C., 5 days
Protocol: Compounds for evaluation were each dissolved in a solution of ethyl acetate:propylene glycol (1:1) or dimethyl sulfoxide at a concentration of 10 mg/mL. 2 μL each of the solutions was added to a bovine hoof slice placed on a low-melting-point agarose. After incubation at 28° C. for 5 days, the agaroses were collected, distilled water was added thereto, and the mixtures were heated and dissolved. The concentrations of the compound in the solutions were determined using a high performance liquid chromatography/mass spectrometry apparatus to obtain the amounts of the agents permeated through the hoof and to calculate the permeabilities of the respective agents. Since the permeability of bovine hoof and human nail correlates as described in J. Pharma. Pharmacol., vol. 49, pp. 866-872, 1997, the nail permeability test was conducted using a bovine hoof in the present invention. Example compounds and comparative compounds (amorolfine hydrochloride, terbinafine hydrochloride and ciclopirox) were each dissolved in a solution of ethyl acetate:propylene glycol (1:1) or dimethyl sulfoxide at a concentration of 10 mg/mL. […] The concentrations of the compounds in the solutions were determined using a high performance liquid chromatography/mass spectrometry apparatus to obtain the amounts of the agents permeated through the nail and calculate the permeabilities of the respective agents.

SMILES	MIC [1] [µg/mL]	MIC [2] [µg/mL]	Nail permeability [3]
CCC(C)(C)c1ccc(CC(C)CN2C[C@@H](C)O[C@@H](C)C2)cc1 (some centres unmarked) [Amorolfine hydrochloride, reference compound]	≤ 1	≤ 2	E (<0.1%)
CCc1ccc(-n2nc(C)cc2C)c(O)c1 [Example 52, 2-(3,5-dimethyl-1H-pyrazol-1-yl)-5-ethylphenol]	≤ 1	≤ 2	
Cc1nn(-c2ccccc2O)c(C)c1F [Example 53, 2-(4-Fluoro-3,5-dimethyl-1H-pyrazol-1-yl)phenol]	2 to 8 (≈ 9.7 to 38.8 µM)	4 to 16 (≈ 19.4 to 77.6 µM)	
Cc1cc(C)n(-c2ccc(Br)cc2O)n1 [Example 54, 5-bromo-2-(3,5-dimethyl-1H-pyrazol-1-yl)phenol]	≤ 1	≤ 2	
Cc1nn(-c2ccc(Br)cc2O)c(C)c1Cl [Example 55, 5-bromo-2-(4-chloro-3,5-dimethyl-1H-pyrazol-1-yl)phenol]	≤ 1	≤ 2	
Cc1nn(-c2ccc(Br)cc2O)c(C)c1C [Example 56, 5-bromo-2-(3,4,5-trimethyl-1H-pyrazol-1-yl)phenol]	≤ 1	≤ 2	
CC(=O)Oc1ccc(-n2nc(C)cc2C)c(O)c1 [Example 57, 4-(3,5-dimethyl-1H-pyrazol-1-yl)-3-hydroxyphenyl acetate]	2 to 8	4 to 16	
CC(=O)Oc1ccc(-n2nc(C)c(Cl)c2C)c(O)c1 [Example 58, 4-(4-chloro-3,5-dimethyl-1H-pyrazol-1-yl)-3-hydroxyphenyl acetate]	2 to 8	≤ 2	
CC(=O)Oc1ccc(-n2nc(C)c(C)c2C)c(O)c1 [Example 59, 3-hydroxy-4-(3,4,5-trimethyl-1H-pyrazol-1-yl)phenyl acetate]	2 to 8	4 to 16	
Cc1cc(C)n(-c2cc(Cl)c(C)cc2O)n1 [Example 61, 4-chloro-2-(3,5-dimethyl-1H-pyrazol-1-yl)-5-methylphenol]	16 to 32 (≈ 67.6 to 135 µM)	16 to 32 (≈ 67.6 to 135 µM)	
Cc1nn(-c2ccc(O)cc2O)c(C)c1Cl [Example 63, 4-(4-chloro-3,5-dimethyl-1H-pyrazol-1-yl)benzene-1,3-diol]	≤ 1	≤ 2	
CN(C/C=C/C#CC(C)(C)C)Cc1cccc2ccccc12 [Terbinafine hydrochloride, reference compound]	≤ 1	≤ 2	E (<0.1%)
